# Source: US12252484B2, “Pyrazolopyridine compounds for the treatment of autoimmune disease” (Hoffmann-La Roche Inc., priority 2018, dated 2025)
# Target: T1, human TLR8 (Homo sapiens, UniProt Q9NR97)
# T1 sequence (Q9NR97 27-1041): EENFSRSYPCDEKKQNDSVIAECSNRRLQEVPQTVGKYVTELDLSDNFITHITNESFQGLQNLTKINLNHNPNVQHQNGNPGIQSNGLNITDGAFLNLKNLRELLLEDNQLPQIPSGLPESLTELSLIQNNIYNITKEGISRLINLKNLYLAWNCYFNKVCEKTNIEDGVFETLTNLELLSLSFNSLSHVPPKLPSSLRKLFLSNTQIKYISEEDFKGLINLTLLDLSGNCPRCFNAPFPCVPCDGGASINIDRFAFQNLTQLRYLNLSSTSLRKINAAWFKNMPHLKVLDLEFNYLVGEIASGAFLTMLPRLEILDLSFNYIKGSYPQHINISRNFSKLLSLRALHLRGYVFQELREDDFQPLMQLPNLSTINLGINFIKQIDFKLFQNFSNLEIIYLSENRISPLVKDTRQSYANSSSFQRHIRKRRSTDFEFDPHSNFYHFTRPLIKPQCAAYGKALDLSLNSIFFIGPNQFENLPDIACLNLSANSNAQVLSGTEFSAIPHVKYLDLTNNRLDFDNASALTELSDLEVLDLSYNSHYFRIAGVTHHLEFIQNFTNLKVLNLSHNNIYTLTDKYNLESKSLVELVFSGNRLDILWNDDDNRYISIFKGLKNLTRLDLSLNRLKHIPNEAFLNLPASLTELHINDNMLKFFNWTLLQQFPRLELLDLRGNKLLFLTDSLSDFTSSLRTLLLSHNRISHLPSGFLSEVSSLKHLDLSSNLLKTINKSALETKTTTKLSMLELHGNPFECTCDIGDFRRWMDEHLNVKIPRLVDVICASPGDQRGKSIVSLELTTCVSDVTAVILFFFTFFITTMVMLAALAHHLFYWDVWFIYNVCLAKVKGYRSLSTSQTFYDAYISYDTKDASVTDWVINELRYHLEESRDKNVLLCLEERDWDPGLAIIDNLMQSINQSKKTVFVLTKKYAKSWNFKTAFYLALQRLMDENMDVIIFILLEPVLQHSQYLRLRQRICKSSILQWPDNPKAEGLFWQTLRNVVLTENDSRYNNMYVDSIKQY
# Experiment: HEK293-Blue-hTLR-8 cells assay (SEAP reporter, R848 stimulation)
# Format: cell-based
# Conditions: HEK293-Blue-hTLR-8 cells, R848 ligand, 20 hrs incubation; read-out: TLR8 IC50
# Procedure: The following tests were carried out in order to determine the activity of the compounds of formula (I) in HEK293-Blue-hTLR-7/8/9 cells assay.
# HEK293-Blue-hTLR-8 Cells Assay:
# A stable HEK293-Blue-hTLR-8 cell line was purchased from InvivoGen (Cat. #: hkb-htlr8, San Diego, California, USA). These cells were originally designed for studying the stimulation of human TLR8 by monitoring the activation of NF-κB. A SEAP (secreted embryonic alkaline phosphatase) reporter gene was placed under the control of the IFN-β minimal promoter fused to five NF-κB and AP-1-binding sites. The SEAP was induced by activating NF-κB and AP-1 via stimulating HEK-Blue hTLR8 cells with TLR8 ligands. Therefore the reporter expression was declined by TLR8 antagonist under the stimulation of a ligand, such as R848, for incubation of 20 hrs. The cell culture supernatant SEAP reporter activity was determined using QUANTI-Blue™ kit (Cat. #: rep-qb1, Invivogen, San Diego, Ca, USA) at a wavelength of 640 nm, a detection medium that turns purple or blue in the presence of alkaline phosphatase.
# HEK293-Blue-hTLR8 cells were incubated at a density of 250,000˜450,000 cells/mL in a volume of 170 μL in a 96-well plate in Dulbecco's Modified Eagle's medium (DMEM) containing 4.5 g/L glucose, 50 U/mL penicillin, […], […], 2 mM L-glutamine, 10% (v/v) heat-inactivated fetal bovine serum with addition of 20 μL test compound in a serial dilution in the presence of final DMSO at 1% and 10 μL of 60 uM R848 in above DMEM, perform incubation under 37° C. in a CO2 incubator for 20 hrs. Then 20 μL of the supernatant from each well was incubated with 180 μL Quanti-blue substrate solution at 37° C. for 2 hrs and the absorbance was read at 620˜655 nm using a spectrophotometer. The signalling pathway that TLR8 activation leads to downstream NF-κB activation has been widely accepted, and therefore similar reporter assay was modified for evaluating TLR8 antagonist.
row,SMILES,IC50 [nM]
1,"C[C@@H]1CN(c2ccc(C#N)n3nccc23)C[C@H](C(=O)NCC2CNCC2(F)F)O1 (stereo partly drawn) [Example 18, (2R,6R)-4-(7-cyanopyrazolo[1,5-a]pyridin-4-yl)-N-[(4,4-difluoropyrrolidin-3-yl)methyl]-6-methyl-morpholine-2-carboxamide]",100
2,"C[C@@H]1CN(c2ccc(C#N)n3nccc23)C[C@H](C(=O)NC2CCNCC2)O1 [Example 24, (2R,6R)-4-(7-cyanopyrazolo[1,5-a]pyridin-4-yl)-6-methyl-N-(4-piperidyl)morpholine-2-carboxamide]",37
3,"C[C@@H]1CN(c2ccc(C#N)n3nccc23)C[C@H](C(=O)NC2CCOCC2)O1 [Example 4, (2R,6R)-4-(7-cyanopyrazolo[1,5-a]pyridin-4-yl)-6-methyl-N-tetrahydropyran-4-yl-morpholine-2-carboxamide]",910
4,"COCCNC(=O)[C@H]1CN(c2ccc(C#N)n3nccc23)C[C@@H](C)O1 [Example 9, (2R,6R)-4-(7-cyanopyrazolo[1,5-a]pyridin-4-yl)-N-(2-methoxyethyl)-6-methyl-morpholine-2-carboxamide]",860
5,"C[C@@H]1CN(c2ccc(C#N)n3nccc23)C[C@H](C(=O)NC2CCN(C)CC2)O1 [Example 1, (2R,6R)-4-(7-cyanopyrazolo[1,5-a]pyridin-4-yl)-6-methyl-N-(1-methyl-4-piperidyl)morpholine-2-carboxamide]",7
6,"C[C@@H]1CN(c2ccc(C#N)n3nccc23)C[C@H](C(=O)NC23CC(CO)(C2)C3)O1 [Example 15, (2R,6R)-4-(7-cyanopyrazolo[1,5-a]pyridin-4-yl)-N-[3-(hydroxymethyl)-1-bicyclo[1.1.1]pentanyl]-6-methyl-morpholine-2-carboxamide]",710
7,"C[C@@H]1CN(c2ccc(C#N)n3nccc23)C[C@H](C(=O)NC(C)(C)CO)O1 [Example 16, (2R,6R)-4-(7-cyanopyrazolo[1,5-a]pyridin-4-yl)-N-(2-hydroxy-1,1-dimethyl-ethyl)-6-methyl-morpholine-2-carboxamide]",210
8,"C[C@@H]1CN(c2ccc(C#N)n3nccc23)C[C@H](C(=O)NCC2CN(C)CCO2)O1 (stereo partly drawn) [Example 7, (2R,6R)-4-(7-cyanopyrazolo[1,5-a]pyridin-4-yl)-6-methyl-N-[(4-methylmorpholin-2-yl)methyl]morpholine-2-carboxamide]",50
9,"CCC(O)CNC(=O)[C@H]1CN(c2ccc(C#N)n3nccc23)C[C@@H](C)O1 (stereo partly drawn) [Example 13, (2R,6R)-4-(7-cyanopyrazolo[1,5-a]pyridin-4-yl)-N-(2-hydroxybutyl)-6-methyl-morpholine-2-carboxamide]",570
10,"C[C@@H]1CN(c2ccc(C#N)n3nccc23)C[C@H](C(=O)NC2CNC[C@H]2F)O1 (stereo partly drawn) [Example 5, Cis-(2R,6R)-4-(7-cyanopyrazolo[1,5-a]pyridin-4-yl)-6-methyl-N-(4-fluoropyrrolidin-3-yl) morpholine-2-carboxamide]",47
11,"C[C@@H]1CN(c2ccc(C#N)n3nccc23)C[C@H](C(=O)NC2CC3CCC(C2)N3)O1 (stereo partly drawn) [Example 23, Exo-(2R,6R)-N-[8-azabicyclo[3.2.1]octan-3-yl]-4-(7-cyanopyrazolo[1,5-a]pyridin-4-yl)-6-methyl-morpholine-2-carboxamide]",74
12,"C[C@@H]1CN(c2ccc(C#N)n3nccc23)C[C@H](C(=O)N[C@H]2CC[C@@H](O)CC2)O1 [Example 20, Cis-(2R,6R)-4-(7-cyanopyrazolo[1,5-a]pyridin-4-yl)-N-(4-hydroxycyclohexyl)-6-methyl-morpholine-2-carboxamide]",190

# More lines, now with the values ahead:
row,IC50 [nM],SMILES
1,5,"C[C@@H]1CN(c2ccc(C#N)n3ncc(F)c23)C[C@H](C(=O)NC2CCN(C)CC2)O1 [Example 47, (2R,6R)-4-(7-cyano-3-fluoro-pyrazolo[1,5-a]pyridin-4-yl)-6-methyl-N-(1-methyl-4-piperidyl)morpholine-2-carboxamide]"
2,97,"C[C@@H]1CN(c2ccc(C#N)n3nccc23)C[C@H](C(=O)N2CCC3(CCNCC3)CC2)O1 [Example 28, 4-[(2R,6R)-2-(3,9-diazaspiro[5.5]undecane-3-carbonyl)-6-methyl-morpholin-4-yl]pyrazolo[1,5a]pyridine-7-carbonitrile]"
3,62,"C[C@@H]1CN(c2ccc(C#N)n3nccc23)C[C@H](C(=O)Nc2ccc(C(=O)N3CCNCC3)cc2)O1 [Example 42, (2R,6R)-4-(7-cyanopyrazolo[1,5-a]pyridin-4-yl)-6-methyl-N-[4-(piperazine-1-carbonyl)phenyl]morpholine-2-carboxamide]"
4,12,"C[C@H]1C[C@@H](N)CN(c2ccc(C#N)n3nccc23)C1 [Example 43, 4-[(3R,5S)-3-amino-5-methyl-1-piperidyl]pyrazolo[1,5-a]pyridine-7-carbonitrile]"
5,240,"C[C@H]1C[C@@H](NCC#N)CN(c2ccc(C#N)n3nccc23)C1 [Example 46, 4-[(3R,5S)-3-(cyanomethylamino)-5-methyl-1-piperidyl]pyrazolo[1,5-a]pyridine-7-carbonitrile]"
6,58,"C[C@@H]1CN(c2ccc(C#N)n3nccc23)C[C@H](C(=O)NC2CC3CCC(C2)N3C)O1 (stereo partly drawn) [Example 33, (2R,6R)-4-(7-cyanopyrazolo[1,5-a]pyridin-4-yl)-6-methyl-N-(8-methyl-8-azabicyclo[3.2.1]octan-3-yl)morpholine-2-carboxamide]"
